Laboratory results reported in patent US20250197396A1, “COMPOUNDS FOR INHIBITING INOSITOL HEXAKISPHOSPHATE KINASE (IP6K) AND METHODS OF USE THEREOF” (Lieber Institute, Inc., priority 2020, published 2025).

Assays:
[1] = molecular target: IP6K1 (Homo sapiens (Human), UniProt Q92551); experiment: IP6K1 IC50 of compounds of Formula (IA) and Formula (IB); assay type: biochemical
[2] = system: Mice treated with HFD; conditions: HFD 8 weeks then daily intraperitoneal 20 mg/kg TNP and HFD for 18 days; cited from earlier work

IP6K1, sequence (Q92551 whole entry, species assumed): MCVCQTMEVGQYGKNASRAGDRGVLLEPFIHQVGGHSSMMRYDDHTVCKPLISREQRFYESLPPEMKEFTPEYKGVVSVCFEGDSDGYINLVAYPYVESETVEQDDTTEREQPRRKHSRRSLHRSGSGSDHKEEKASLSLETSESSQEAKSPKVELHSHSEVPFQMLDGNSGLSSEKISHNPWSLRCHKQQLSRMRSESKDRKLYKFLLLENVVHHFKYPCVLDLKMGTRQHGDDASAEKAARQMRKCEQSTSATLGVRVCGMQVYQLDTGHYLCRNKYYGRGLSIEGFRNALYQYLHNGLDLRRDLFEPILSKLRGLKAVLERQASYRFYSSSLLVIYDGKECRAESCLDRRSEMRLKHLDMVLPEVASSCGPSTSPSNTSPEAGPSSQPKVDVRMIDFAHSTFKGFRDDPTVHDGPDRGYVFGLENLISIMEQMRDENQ

SMILES | IP6K1 IC50 [1] | also measured
O=C(O)c1ccc2c(c1)C1(CCN(S(=O)(=O)c3ccc(Cl)cc3)CC1)C(=O)N2 [Cmpd 1a, 1′-((4-chlorophenyl)sulfonyl)-2-oxospiro[indoline-3,4′-piperidine]-5-carboxylic acid] | + + | 
O=C(O)c1ccc2[nH]c(=O)n(C3CCN(C(=O)c4ccccc4Cl)CC3)c2c1 [Cmpd 1b, 3-(1-(2-chlorobenzoyl)piperidin-4-yl)-2-oxo-2,3-dihydro-1H-benzo[d]imidazole-5-carboxylic acid] | + + | 
O=C(O)c1ccc2c(c1)C1(CCN(C(=O)c3ccc(Cl)cc3)CC1)C(=O)N2 [Cmpd 2a, 1′-(4-chlorobenzoyl)-2-oxospiro[indoline-3,4′-piperidine]-5-carboxylic acid] | + + + | 
COC(=O)c1ccc2c(c1)C1(CCN(C(=O)c3ccc(Cl)cc3)CC1)C(=O)N2 [Cmpd 3a, Methyl 1′-(4-chlorobenzoyl)-2-oxospiro[indoline-3,4′-piperidine]-5-carboxylate] |  | IC50 [1]: 3 to 30 µM
O=C(O)c1ccc2[nH]c(=O)n(C3CCN(C(=O)c4ccc(Cl)cc4Cl)CC3)c2c1 [Cmpd 3b, 3-(1-(2,4-dichlorobenzoyl)piperidin-4-yl)-2-oxo-2,3-dihydro-1H-benzo[d]imidazole-5-carboxylic acid] | + + + | 
O=C(O)c1ccc2c(c1)C1(CCN(C(=O)Cc3ccc(Cl)cc3)CC1)C(=O)N2 [Cmpd 4a, 1′-(2-(4-chlorophenyl)acetyl)-2-oxospiro[indoline-3,4′-piperidine]-5-carboxylic acid] | + + | 
O=C(O)c1ccc2c(c1)C1(CCN(Cc3ccc(Cl)cc3)CC1)C(=O)N2 [Cmpd 5a, 1′-(4-chlorobenzyl)-2-oxospiro[indoline-3,4′-piperidine]-5-carboxylic acid] | + + | 
O=C(O)c1ccc2[nH]c(=O)n([C@H]3CC[C@H](Oc4ncc(Cl)cc4Cl)CC3)c2c1 [Cmpd 5b, 3-((1r,4r)-4-((3,5-dichloropyridin-2-yl)oxy)cyclohexyl)-2-oxo-2,3-dihydro-1H-benzo[d]imidazole-5-carboxylic acid] | + + + | 
O=C(O)c1ccc2c(c1)C1(CCN(C(=O)c3ncc(Cl)cc3Cl)CC1)C(=O)N2 [Cmpd 6a, 1′-(3,5-dichloropicolinoyl)-2-oxospiro[indoline-3,4′-piperidine]-5-carboxylic acid] | + + + | 
O=C(O)c1ccc2[nH]c(=O)n([C@H]3CC[C@@H](Oc4ncc(Cl)cc4Cl)CC3)c2c1 [Cmpd 6b, 3-((1s,4s)-4-((3,5-dichloropyridin-2-yl)oxy)cyclohexyl)-2-oxo-2,3-dihydro-1H-benzo[d]imidazole-5-carboxylic acid] | + + + | 
O=C(O)c1ccc2c(c1)C1(CCN(C(=O)Nc3ccc(Cl)cc3)CC1)C(=O)N2 [Cmpd 7a, 1′-((4-chlorophenyl)carbamoyl)-2-oxospiro[indoline-3,4′-piperidine]-5-carboxylic acid] | + + + | 
O=C(O)c1cc2c(cc1F)[nH]c(=O)n2[C@H]1CC[C@H](Oc2ncc(Cl)cc2Cl)CC1 [Cmpd 7b, 3-((1r,4r)-4-((3,5-dichloropyridin-2-yl)oxy)cyclohexyl)-6-fluoro-2-oxo-2,3-dihydro-1H-benzo[d]imidazole-5-carboxylic acid] | + + + | 
O=C(O)c1ccc2c(c1)C1(CCN(C(=O)c3ccc(C(F)(F)F)cc3)CC1)C(=O)N2 [Cmpd 8a, 2-oxo-1′-(4-(trifluoromethyl)benzoyl)spiro[indoline-3,4′-piperidine]-5-carboxylic acid] | + + + | 
O=C(O)c1ccc2[nH]c(=O)n(CCOc3ccc(Cl)cc3)c2c1 [Cmpd 8b, 3-(2-(4-chlorophenoxy)ethyl)-2-oxo-2,3-dihydro-1H-benzo[d]imidazole-5-carboxylic acid] | + + | 
O=C(O)c1ccc2c(c1)C1(CCN(C(=O)COc3ccc(Cl)cc3)CC1)C(=O)N2 [Cmpd 9a, 1′-(2-(4-chlorophenoxy)acetyl)-2-oxospiro[indoline-3,4′-piperidine]-5-carboxylic acid] | + + | 
O=C(O)c1ccc2[nH]c(=O)n(CCCOc3ncc(Cl)cc3Cl)c2c1 [Cmpd 9b, 3-(3-((3,5-dichloropyridin-2-yl)oxy)propyl)-2-oxo-2,3-dihydro-1H-benzo[d]imidazole-5-carboxylic acid] | + + + | 

SMILES | IP6K1 IC50 [1] | also measured
O=C(O)c1ccc2c(c1)C1(CCN(C(=O)C3CC3)CC1)C(=O)N2 [Cmpd 10a, 1′-(cyclopropanecarbonyl)-2-oxospiro[indoline-3,4′-piperidine]-5-carboxylic acid] |  | IC50 [1]: 3 to 30 µM
O=C(O)c1ccc2[nH]c(=O)n(C3CN(C(=O)c4ccc(Cl)cc4Cl)C3)c2c1 [Cmpd 10b, 3-(1-(2,4-dichlorobenzoyl)azetidin-3-yl)-2-oxo-2,3-dihydro-1H-benzo[d]imidazole-5-carboxylic acid] | + + | 
O=C(O)c1ccc2[nH]c(=O)n(C3CN(Cc4ccc(Cl)cc4Cl)C3)c2c1 [Cmpd 11b, 3-(1-(2,4-dichlorobenzyl)azetidin-3-yl)-2-oxo-2,3-dihydro-1H-benzo[d]imidazole-5-carboxylic acid] | + + | 
CC(=O)N1CCC2(CC1)C(=O)Nc1ccc(C(=O)O)cc12 [Cmpd 12a, 1′-acetyl-2-oxospiro[indoline-3,4′-piperidine]-5-carboxylic acid] |  | IC50 [1]: 3 to 30 µM
O=C(O)c1ccc2[nH]c(=O)n([C@H]3CCN(C(=O)c4ccc(Cl)cc4Cl)C3)c2c1 [Cmpd 12b, (S)-3-(1-(2,4-dichlorobenzoyl)pyrrolidin-3-yl)-2-oxo-2,3-dihydro-1H-benzo[d]imidazole-5-carboxylic acid] | + + | 
CC(C)C(=O)N1CCC2(CC1)C(=O)Nc1ccc(C(=O)O)cc12 [Cmpd 13a, 1′-isobutyryl-2-oxospiro[indoline-3,4′-piperidine]-5-carboxylic acid] |  | IC50 [1]: 3 to 30 µM
O=C(O)c1ccc2[nH]c(=O)n([C@H]3CCN(Cc4ccc(Cl)cc4Cl)C3)c2c1 [Cmpd 13b, (S)-3-(1-(2,4-dichlorobenzyl)pyrrolidin-3-yl)-2-oxo-2,3-dihydro-1H-benzo[d]imidazole-5-carboxylic acid] | + + | 
O=C(O)c1ccc2c(c1)C1(CCN(C(=O)c3ccccc3Cl)CC1)C(=O)N2 [Cmpd 14a, 1′-(2-chlorobenzoyl)-2-oxospiro[indoline-3,4′-piperidine]-5-carboxylic acid] | + + | 
O=C(O)c1ccc2[nH]c(=O)n([C@@H]3CCN(C(=O)c4ccc(Cl)cc4Cl)C3)c2c1 [Cmpd 14b, (R)-3-(1-(2,4-dichlorobenzoyl)pyrrolidin-3-yl)-2-oxo-2,3-dihydro-1H-benzo[d]imidazole-5-carboxylic acid] | + + | 
O=C(O)c1ccc2c(c1)C1(CCN(Cc3ccccc3Cl)CC1)C(=O)N2 [Cmpd 15a, 1′-(2-chlorobenzyl)-2-oxospiro[indoline-3,4′-piperidine]-5-carboxylic acid] | + + | 
O=C(O)c1ccc2[nH]c(=O)n([C@@H]3CCN(Cc4ccc(Cl)cc4Cl)C3)c2c1 [Cmpd 15b, (R)-3-(1-(2,4-dichlorobenzyl)pyrrolidin-3-yl)-2-oxo-2,3-dihydro-1H-benzo[d]imidazole-5-carboxylic acid] | + + | 
O=C(O)c1ccc2c(c1)[nH]c(=O)n2C1CCN(C(=O)c2ccc(Cl)cc2Cl)CC1 [Cmpd 16b, 1-(1-(2,4-dichlorobenzoyl)piperidin-4-yl)-2-oxo-2,3-dihydro-1H-benzo[d]imidazole-5-carboxylic acid] | + + | 
O=C(O)c1ccc2c(c1)C1(CCN(C(=O)c3ccc(Cl)cc3Cl)CC1)C(=O)N2 [Cmpd 17a, 1′-(2,4-dichlorobenzoyl)-2-oxospiro[indoline-3,4′-piperidine]-5-carboxylic acid] | + + + | 
O=C(O)c1ccc2[nH]c(=O)n(CC3CCN(Cc4ccc(Cl)cc4Cl)C3)c2c1 (stereo not drawn) [Cmpd 18b, 3-((1-(2,4-dichlorobenzyl)pyrrolidin-3-yl)methyl)-2-oxo-2,3-dihydro-1H-benzo[d]imidazole-5-carboxylic acid] |  | IC50 [1]: 3 to 30 µM
O=C(O)c1ccc2[nH]c(=O)n(CC3CCN(C(=O)c4ccc(Cl)cc4Cl)C3)c2c1 (stereo not drawn) [Cmpd 19b, 3-((1-(2,4-dichlorobenzoyl)pyrrolidin-3-yl)methyl)-2-oxo-2,3-dihydro-1H-benzo[d]imidazole-5-carboxylic acid] | + + | 
O=[N+]([O-])c1ccc(CNc2nc(NCc3cccc(C(F)(F)F)c3)nc3nc[nH]c23)cc1 [TNP, N2-(m-trifluorobenzyl)-N6-(p-nitrobenzyl)purine] |  | glucose tolerance and insulin sensitivity [2]: improved; serum insulin levels [2]: lower
